The values that follow are results of earlier work, collected in patent US20240000694A1, “Methods and Materials for Matching Chemistry of Individuals and Human Melanin” (Northwestern University, priority 2022, published 2024).

Molecules are shown by their SMILES.

With `N[C@@H](CSSC[C@H](N)C(=O)O)C(=O)O` [cystine], the “pKa of —COOH” value was 1.91.
